Data as given in US6949586B2, “Synergistic composition of trans-tetracos-15-enoic acid and Apocynin and method of treatment for hepatotoxicity” (Council of Scientific Research, priority 2002, dated 2005).

Columns and labels:
Type in all cases: in vivo
[1] = system: bile flow and bile solids; experiment: Chloretic activity: bile flow and bile solids after bile duct cannulation; details: rats, 50 mg kg−1 i.d.; bile collected 0-5 hours; mean ± SE
Source text: The liver, by producing bile, plays an important role in digestion. The presence of bile in the intestine is necessary to accomplish the digestion and absorption of fats as well as absorption of the fat-soluble vitamins—A, D, E & K. Bile is also an important vehicle of excretion. It removes many drugs, toxins, bile pigments and various inorganic substances either derived from the diet or synthesized by the body as cholesterol or as cholic acid.
Effect on the liver bile flow of test drug and that of vehicle is carried out after cannulating the bile duct in normal anaesthesied rats. Bile collected is from each animal from 0-5 hours (Klaassen, 1969, Donal et al. 1953). (Table 5)

[2] = system: Acetaminophen (APAP) induced hepatotoxicity; experiment: Paracetamol (Acetaminophen, APAP) induced hepatotoxicity after diethyl-ether inhalation; details: mice, 50 mg kg−1 p.o., mean ± S.E.
Source text: Paracetamol (APAP, Acetaminophen): It is a therapeutic agent widely used as analgesic/antipyretic drug. When taken in large doses it causes hepatic necrosis which leads to biochemical changes having clinical features similar to those of acute viral hepatitis in humans (Proudfoot and Wright, 1970). The similar effect is observed in animals. The toxic effect can be potentiated if it is given several hours after the anesthetic ether inhalation (Wells et. al., 1986). Liver injury is induced by injecting paracetamol (200 mg.kg^-1) interaperitoneally in normal saline (pH 9.4) six hour after inhalation of anesthetic ether (4 ml/4 min/6 animals) in a closed chamber. The control animals received the equal volume of vehicle. […] (Table 2) GPT and GOT: Pyruvate formed by transamination reaction is determined spectrophotometrically after reaction with 2,4-dinitrophenylhydrazine (Reitman and Frankel, 1957). ALP: p-nitrophenol formed in alkaline medium is measured spectrophotometrically using p-nitrophenyl phosphate as substrate (Walter and Schutt, 1974). Bilirubin : Total bilirubin is measured by diazotization reaction with NaNO2 (Malloy and Evelyn, 1937) Triglycerides: Triglycerides from serum are extracted with isopropanol and sopanified with KOH. The liberated glycerol is converted to formaldehyde by periodate and determined after reaction with acetyl acetone. […]

[3] = system: galactosamine, paracetamol and CCl4 as hepatotoxins; experiment: Earlier RRL Jammu study of hepatoprotective effect against galactosamine, paracetamol and CCl4; details: synthesized constituent; silymarin as reference material

## C[C@H](CCC(=O)O)[C@H]1CC[C@H]2[C@@H]3C(=O)C[C@@H]4CC(=O)CC[C@]4(C)[C@H]3CC(=O)[C@]12C [DHC, Dehydrocholic acid]
[1]
  Bile flow (ml %), % Increase (as compared to normal): 38.40 ± 2.76%
  Bile solids (mg %), % Increase (as compared to normal): 28.13 ± 3.89%

## CCCCCCCC/C=C/CCCCCCCCCCCCCC(=O)O [TCA, trans-tetracos-15-enoic acid]
[2]
  Hepatic Lipid Peroxidation: 44.24 ± 2.22 n moles MDA/g liver
[3]
  hepatoprotective effect against galactosamine, paracetamol and CCl4 as hepatotoxins: dose related hepatoprotective effect
